Measurements as given in patent US5641760A, “Method of treating candida infection” (Pence, Inc., priority 1994, dated 1997).

Tests used:
[1] = test system: Candida albicans strain #40 fimbriae (enriched fimbriae EF, 66 kDa fimbrial subunit/adhesin protein); test: Thin-layer chromatography plate binding assay of fimbriae to glycosphingolipids; settings: 10 μg GSL per spot; 100 μg EF/ml; detected with mAb Fm16
Method: Bound fimbriae on the TLC plates were visualized with a Protein G affinity-purified anti-C. albicans fimbriae monoclonal antibody, Fm16, obtained from ascites tumor in Balb/c mice as described below and a goat anti-mouse IgG alkaline phosphatase. […] (Lane 2).
The thin-layer chromatography (TLC) plate binding assay was performed as described by Baker et al. (1) with minor modifications. Aluminum-backed silica gel Si60 high performance TLC plates (Merck Kieselgel Si60, no fluorescence indicator, E. Merck, Darmstadt, Germany) were cut to produce 8×2.5 cm plates which were chromatographed with 100% methanol to the top of the plate to remove impurities and the plates were air dried. Glycosphingolipids (GSLs) (10 μg of each GSL) were loaded 1.0 cm above the base of the plate. The following glycosphingolipids purchased from Sigma Co. (St. Louis, Mo.) were used: mono-sialoganglioside (M-GM1), asialoganglioside GM1 (asialo-GM1), asialoganglioside GM2 (asialo-GM2), lactosylcerebroside (LCS), ceramide trihexoside (CTH). GSLs were separated on the TLC plates in chloroform-methanol-water (65:35:8, v/v/v) and air dried. One set of plates was sprayed with 10% sulphuric acid in ethanol and heated at 100°-150° C. for 5-10 min to char the GSLs for visual detection, and the other set was used for the fimbrial binding assay. The four corners of the plate were bent to 90° and the remainder of the assay was done with the TLC plates inverted in all solutions and at room temperature in an incubator shaker (model G25 Gyroshaker, New Brunswick Scientific, New Jersey, U.S.A.) at 20 rpm agitation. The TLC plate was blocked with 50 mM tris-hydroxy-methyl aminomethane pH 7.5 containing 150 mM NaCl (TBS), 0.25% (w/v) gelatin, 3% (w/v) BSA, 5 mM EDTA and 0.05% (v/v) Nonidet P40 in a glass petri dish for 2 hr at room temperature. The blocking solution was aspirated and 10 ml of EF (100 μg EF/ml in 100 mM TBS, pH 7.5) was then added. The fimbriae were allowed to bind to GSLs for 2 hours at room temperature. The plates were gently washed (2×5 min) with 10 ml of 100 mM TBS containing 0.1% (v/v) Tween 20 (TBST). The murine anti-EF monoclonal antibody, Fm16, was diluted 1:200 with TBST and 10 ml was added to the TLC plates. The solution was incubated for 1 hour at room temperature. Unbound antibodies were removed by washing the plates with 10 ml of TBST (2×5 min). The plate was then incubated with 10 ml of goat anti-mouse immunoglobulin G alkaline phosphatase conjugate (Jackson Laboratories) diluted 1:5,000 with TBST for 1 hour at room temperature. The plates were washed (2×5 min.) with 10 ml of TBST. The alkaline phosphatase activity was localized with Nitro Blue Tetrazolium chloride (NBT) and 5-bromo-4-chloro-3-indolyl phosphate (BCIP) dissolved in 100 mM Tris buffer, pH 9.5 containing 100 mM NaCl and 5 mM MgCl2. Color development was quenched by rinsing the TLC plate with deionized water and submerging the plate into a 150 mM EDTA solution pH 8.0 for 3-5 min. The plates were air dried, stored in plastic in the dark until they were photographed.

[2] = test system: Candida albicans strain #40 fimbriae (enriched fimbriae EF, 66 kDa fimbrial subunit/adhesin protein); test: Inhibition of fimbriae binding to immobilized βGalNAc(1-4)βGal-BSA conjugate; settings: plates coated with 10 μg/ml conjugate
Method: Further experiments to determine the specificity of fimbrial binding to GSLs were carried out using a plate binding assay, as described above, but immobilizing on the plates a βGalNAc(1-4)βGal-BSA conjugate, synthesized from βGalNAc(1-4)βGal-O(CH2)8 COOCH3 (Sabesan and Lemieux), as described in Part B, above. The coupling ratio of disaccharide: BSA was 12:1. The protocol utilized for this assay was similar to that employed for the assessment of C. albicans fimbriae binding to GSLs except that the plates were coated with 100 μl/well of a 10 μg/ml solution of synthetic βGalNAc(1-4)βGal-BSA conjugate in 0.01M carbonate buffer, pH 9.5.
Using this assay, it was first determined that fimbriae bind to the βGalNAc(1-4)βGal-BSA conjugate in a saturable, concentration-dependent manner. FIGS. 12A and 12B show the results of experiments in which compounds were tested for ability to inhibit binding of fimbriae to the βGalNAc(1-4)βGal-BSA conjugate. The protocol used in this assay was similar to the one used in the GSL inhibition assay described above, except that the plates were coated with 100 μl/well of a 10 μg/ml solution of synthetic βGalNAc(1-4)βGal-BSA conjugate in 0.01M carbonate buffer, pH 9.5. As depicted in FIG. 12A, βGalNAc(1-4)βGal-methylester ("GalNAcGal") was able to inhibit binding to the GalNAcGal-BSA conjugate in a concentration dependent manner. […]

| Substance | Binding of C. albicans fimbriae to glycosphingolipid on TLC plate [1] | Concentration required for half-maximal inhibition of fimbriae binding to βGalNAc(1-4)βGal-BSA conjugate [2] [µg/mL] |
| --- | --- | --- |
| gangliotetraosylceramide: βGal(1-3)βGalNAc(1-4)βGal(1-4)βGlc(1-1)Cer [asialo-GM1] | bind specifically | 7.5 |
| ceramide trihexoside [CTH, ceramide trihexoside [aGal(1-4)βGal(1-4)βGlc(1-1)Cer]] | failed to bind | – |
